Laboratory results published in PubChem BioAssay AID2060483 (Molecular Pharmacology Branch, DTP, NCI, 2025).
Several values for one entry are separate records, joined by “and”; a condition that tells them apart may be missing. Equal values may be shown once. One block for each compound: values may come before it.

Test system: K24384-001-R-PDC complex spheroids, viability
Test: Anticancer human tumor K24384-001-R-PDC patient-derived pancreatic adenocarcinoma cell line growth inhibition [GQUAD]
Details: for viability, T/C: stronger effect = lower value
Text: DNA G-quadruplex Stabilizer Agents in Combinations in Complex Spheroids
A high-throughput screen of multi-cell type tumor spheroids was designed to identify active combinations of DNA G-quadruplex stabilizer agents and targeted small molecules. Complex spheroids include a stromal component modeled by human endothelial cells (HUVEC) and fibroblasts modeled by human mesenchymal stem cells (MSCs). The concentration ranges selected for each drug and investigational agent were based upon clinically achievable concentrations if the clinical Cmax of the agent was known.
Compounds. The drugs and investigational agents: pidnarulex (CX-5461; NSC782164), APTO-253 (NSC789042), BRACO-19 (NSC847499), peposertib (NSC802822), ceralasertib (NSC780249), elimusertib (NSC800525), camonsertib (NSC841442), AZD-1390 (NSC803789), olaparib (NSC753686), talazoparib (NSC767125), ART-558 (NSC835418), sotorasib (NSC818433), MRTX-1133 (NSC836407), SN-38 (NSC673596), topotecan (NSC609699), etoposide (NSC141540), doxorubicin (NSC123127), gemcitabine (NSC613327), 5-fluorouracil (NSC19893), paclitaxel (NSC125973), vemurafenib (NSC761431), panobinostat (NSC761190), R-306465 (JNJ-16241199; NSC773264), adavosertib (NSC754352), TP-3654 (NSC805149), carboplatin (NSC241240), KSQ-4279 (NSC840948), and staurosporine (NSC755774) were obtained from the National Cancer Institute (NCI) Developmental Therapeutics Program Chemical Repository (34). The FDA-approved anticancer drug set is available from the NCI Developmental Therapeutics Program. […] The stock solutions were prepared in dimethyl sulfoxide (DMSO, Sigma-Aldrich, St. Louis, MO, cat. D2650) at 800-fold the tested concentration and stored at -70 degrees C prior to their use. All drugs and investigational agents were tested over a range starting from a high concentration at or near the clinical Cmax and decreasing in half-log increments. If the clinical Cmax for an agent had not been determined, the highest concentration tested was 10 microM.
2.3 Cell Culture. All cells were maintained in an incubator at 37 degrees C and 5% CO2 with 95% humidity. The PDC lines were cultured according to standard operating procedures established by the NCI PDMR. All PDCs were thawed and cultured in Matrigel-coated flasks prepared with a working solution of 1X Ham's F-12 nutrient mix, without supplementation (Invitrogen, cat. 11765054), 100 U/mL penicillin-streptomycin (Invitrogen, cat. 15140122), and 2.5% Matrigel (Corning Inc., cat. 354248) for the first three passages. The 857933-349-R-J2-PDC line was cultured in 6C/Colon 1B media, which includes advanced DMEM/F-12 (Thermo Fisher Scientific, cat. 12634028), 10 mM HEPES (Thermo Fisher Scientific, cat. 15630080), 1X GlutaMAX supplement (Thermo Fisher Scientific, cat. 35050061), 0.1 mg/mL primocin (InvivoGen, cat. ant-pm-2), 10% defined fetal bovine serum, heat inactivated (HyClone Laboratories Inc., cat. SH30070.03HI), 50% L-WRN conditioned media (ATCC, cat. CRL-3276), 1.25 mM N-Acetyl-L-cysteine (Sigma-Aldrich, cat. A9165), 10 mM nicotinamide (Sigma-Aldrich, cat. N0636), 1X B-27 supplement (Thermo Fisher Scientific, cat. 17504044), 1X N-2 supplement (Thermo Fisher Scientific, cat. 17502048), 10 microM Y-27632 dihydrochloride (Tocris Bioscience, cat. 1254), and 50 ng/mL human EGF recombinant protein (Thermo Fisher Scientific, cat. PHG0311). The 485176-168-R4-J1-PDC line was cultured in Panc media, which includes all 6C/Colon 1B media components plus 100 ng/mL human FGF-10 (Thermo Fisher Scientific, cat. 100-26), 500 nM SB-431542 (Selleckchem, cat. S1067), and gastrin (Tocris, cat. 3006).
[…]

[1] = compound alone, run of 02/26/2024
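Note: spheroids exposed to compounds for seven days.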

Compound: CC(C)(O)C1CCC(Nc2ccc3ncc(-c4cccc(C(F)(F)F)c4)n3n2)CC1 (stereo not drawn)
viability, T/C (compound 0.0316 µM): 103% and 104% and 99% | viability, T/C (compound 0.1 µM): 95.2% and 105% and 94.7% | viability, T/C (compound 0.316 µM): 113% and 101% and 108% | viability, T/C (compound 1 µM): 61% and 80.7% and 57.2% | viability, T/C (compound 3.16 µM): 25% and 33.2% and 28.8% | viability, T/C (compound 10 µM): 48% and 40.7% and 36% | IC50 (curve of compound): 1.68 µM and 2.24 µM and 1.39 µM

Compound: CN(C)c1ccc(Nc2c3ccc(NC(=O)CCN4CCCC4)cc3nc3cc(NC(=O)CCN4CCCC4)ccc23)cc1
viability, T/C (compound 0.0316 µM): 101% [middle of 12 runs] | viability, T/C (compound 0.1 µM): 100% [middle of 12 runs] | viability, T/C (compound 0.316 µM): 101% [middle of 12 runs] | IC50 [1]: > 10 µM

Compound: CC[C@@]1(O)C(=O)OCc2c1cc1n(c2=O)Cc2cc3c(CN(C)C)c(O)ccc3nc2-1
viability, T/C (compound 0.000999 µM): 103% and 111% and 108% | viability, T/C (compound 0.00316 µM): 83.2% and 92.2% and 77.5% | viability, T/C (compound 0.00999 µM): 97.7% and 100% and 114% | viability, T/C (compound 0.0316 µM): 82.8% and 82.3% and 80.1% | viability, T/C (compound 0.0999 µM): 66.6% and 50.2% and 63.6% | viability, T/C (compound 0.316 µM): 53% and 58.5% and 51.3% | IC50 (curve of compound): > 0.316 µM

Compound: CC1COCCN1c1cc(C2(S(C)(=N)=O)CC2)nc(-c2ccnc3[nH]ccc23)n1 (stereo not drawn) + CN(C)c1ccc(Nc2c3ccc(NC(=O)CCN4CCCC4)cc3nc3cc(NC(=O)CCN4CCCC4)ccc23)cc1
IC50 (curve of first compound, second compound 0.0316 µM): 1.53 µM | IC50 (curve of first compound, second compound 0.1 µM): 1.6 µM | IC50 (curve of first compound, second compound 0.316 µM): 1.71 µM | IC50 (curve of first compound, second compound 1 µM): 1.7 µM | IC50 (curve of first compound, second compound 3.16 µM): 1.68 µM | IC50 (curve of first compound, second compound 10 µM): 1.7 µM | viability, T/C (second compound 0.0316 µM, first compound 0.0316 µM): 95.2% | viability, T/C (second compound 0.0316 µM, first compound 0.1 µM): 90.1% | viability, T/C (second compound 0.0316 µM, first compound 0.316 µM): 113% | viability, T/C (second compound 0.0316 µM, first compound 1 µM): 64.1% | viability, T/C (second compound 0.0316 µM, first compound 3.16 µM): 28.2% | viability, T/C (second compound 0.0316 µM, first compound 10 µM): 24.2% | viability, T/C (second compound 0.1 µM, first compound 0.0316 µM): 90.3% | viability, T/C (second compound 0.1 µM, first compound 0.1 µM): 115% | viability, T/C (second compound 0.1 µM, first compound 0.316 µM): 84.4% | viability, T/C (second compound 0.1 µM, first compound 1 µM): 60.9% | viability, T/C (second compound 0.1 µM, first compound 3.16 µM): 36.4% | viability, T/C (second compound 0.1 µM, first compound 10 µM): 23.2% | viability, T/C (second compound 0.316 µM, first compound 0.0316 µM): 83.3% | viability, T/C (second compound 0.316 µM, first compound 0.1 µM): 92.9% | viability, T/C (second compound 0.316 µM, first compound 0.316 µM): 86.1% | viability, T/C (second compound 0.316 µM, first compound 1 µM): 56.9% | viability, T/C (second compound 0.316 µM, first compound 3.16 µM): 42.2% | viability, T/C (second compound 0.316 µM, first compound 10 µM): 26.1% | viability, T/C (second compound 1 µM, first compound 0.0316 µM): 86.5% | viability, T/C (second compound 1 µM, first compound 0.1 µM): 104% | viability, T/C (second compound 1 µM, first compound 0.316 µM): 86.2% | viability, T/C (second compound 1 µM, first compound 1 µM): 62.2% | viability, T/C (second compound 1 µM, first compound 3.16 µM): 35.9% | viability, T/C (second compound 1 µM, first compound 10 µM): 32.1% | viability, T/C (second compound 3.16 µM, first compound 0.0316 µM): 90.2% | viability, T/C (second compound 3.16 µM, first compound 0.1 µM): 98.6% | viability, T/C (second compound 3.16 µM, first compound 0.316 µM): 99.3% | viability, T/C (second compound 3.16 µM, first compound 1 µM): 60.8% | viability, T/C (second compound 3.16 µM, first compound 3.16 µM): 39.6% | viability, T/C (second compound 3.16 µM, first compound 10 µM): 23.4% | viability, T/C (second compound 10 µM, first compound 0.0316 µM): 91.6% | viability, T/C (second compound 10 µM, first compound 0.1 µM): 102% | viability, T/C (second compound 10 µM, first compound 0.316 µM): 86.9% | viability, T/C (second compound 10 µM, first compound 1 µM): 62.9% | viability, T/C (second compound 10 µM, first compound 3.16 µM): 35.4% | viability, T/C (second compound 10 µM, first compound 10 µM): 28.2%

Continued, in another order:

IC50 (curve of compound): 9.4 µM and > 10 µM
Compound: CCCS(=O)(=O)Nc1ccc(F)c(C(=O)c2c[nH]c3ncc(-c4ccc(Cl)cc4)cc23)c1F
viability, T/C (compound 0.0316 µM): 99.8% and 109% and 105% | viability, T/C (compound 0.1 µM): 107% and 112% and 96.4% | viability, T/C (compound 0.316 µM): 128% and 125% and 130% | viability, T/C (compound 1 µM): 119% and 110% and 116% | viability, T/C (compound 3.16 µM): 137% and 147% and 123% | viability, T/C (compound 10 µM): 46.2% and 54.7% and 52.6%

IC50 (curve of compound): > 10 µM
Compound: O=C(c1cc(Cc2n[nH]c(=O)c3ccccc23)ccc1F)N1CCN(C(=O)C2CC2)CC1
viability, T/C (compound 0.0316 µM): 104% and 98.6% and 94.7% | viability, T/C (compound 0.1 µM): 93.9% and 91.4% and 99.2% | viability, T/C (compound 0.316 µM): 113% and 98.2% and 86.2% | viability, T/C (compound 1 µM): 93.1% and 97.6% and 91% | viability, T/C (compound 3.16 µM): 101% and 72.5% and 91.1% | viability, T/C (compound 10 µM): 79.3% and 69.8% and 82.3%

IC50 (curve of compound): 0.431 µM and 0.571 µM and 0.42 µM
Compound: O=C(NO)c1cnc(N2CCN(S(=O)(=O)c3ccc4ccccc4c3)CC2)nc1
viability, T/C (compound 0.0316 µM): 110% and 91.7% and 116% | viability, T/C (compound 0.1 µM): 81% and 99.9% and 83.9% | viability, T/C (compound 0.316 µM): 66.6% and 72.7% and 68.1% | viability, T/C (compound 3.16 µM): 0.26% and 0.27% and 0.09% | viability, T/C (compound 10 µM): 0.25% and 0.26% and 0.14%

IC50 (compound alone, run of 02/20/2024): > 10 µM and 9.08 µM | IC50 [1]: > 10 µM
Compound: Cc1[nH]c2ccc(F)cc2c1-c1nc2c3cccnc3c3ncccc3c2[nH]1
viability, T/C (compound 0.0316 µM): 109% [middle of 12 runs] | viability, T/C (compound 0.1 µM): 102% [middle of 12 runs] | viability, T/C (compound 0.316 µM): 99% [middle of 12 runs] | viability, T/C (compound 3.16 µM): 65.3% [middle of 12 runs]

IC50 (curve of compound): > 10 µM
Compound: CC(C)n1c(=O)n(C)c2cnc3cc(F)c(-c4ccc(OCCCN5CCCCC5)nc4)cc3c21
viability, T/C (compound 0.0316 µM): 108% and 84.2% and 93.7% | viability, T/C (compound 0.1 µM): 89% and 95.3% and 95.1% | viability, T/C (compound 0.316 µM): 116% and 97.8% and 99.7% | viability, T/C (compound 1 µM): 120% and 88% and 123% | viability, T/C (compound 3.16 µM): 123% and 107% and 119% | viability, T/C (compound 10 µM): 92.1% and 80.3% and 90.2%
